In patent US9751884B2, “N-aryl unsaturated fused ring tertiary amine compounds, preparation method and anti-tumor applications thereof” (Institute of Pharmacology and Toxicology Academy of …, priority 2012, dated 2017):
In brackets after ≈: the same amount, converted by molar mass.

Key:
[1] = system: DU145 prostate cancer cells; assay: Experiments of inhibiting growth of cancer cells, SRB method, DU145; assay type: cell-based; settings: Homo sapiens, DU-145, 48 h with drug
Method: (§1) The cells were placed in 2.5 cm culture dish and cultured at 37° C. in wet air containing 5% CO2. Cell lines grew adhering to wall. The preparation and dilution of samples as well as process for inoculating them to cellular fluid were performed under aseptic condition. The test samples usually were dissolved in DMSO, stored at −70° C. […] GI50 values about inhibiting growth of cancer cells were determined by SRB (sulfonyl rhodamine B) method. Anticancer drug paclitaxel was used as positive control.
(§2) A549: lung cancer cells; DU145: prostate cancer cells; KB: nasopharyngeal cancer cells; KB-VIN: drug-resistant nasopharyngeal cancer cells. GI50 value was the concentration that causes 50% cancer cells growth inhibition, showing anticancer activity.

A549 lung cancer cells = assay: Experiments of inhibiting growth of cancer cells, SRB method, A549; assay type: cell-based; settings: Homo sapiens, 48 h with drug
Method: as §1, §2

Row | SMILES | GI50 [1] [µg/mL] | GI50 (A549 lung cancer cells) [µg/mL] | melting point [°C]
1 | COc1ccc2c(c1)CCN2c1nc(C)nc2ccccc12 [Compound 8, 2-Methyl-4-[N^1-(5-methoxy)indolinyl]quinazoline] | 0.059 (≈ 0.203 µM) | 0.0679 (≈ 0.233 µM) | 116 to 117
2 | COc1ccc2c(c1)CCCN2c1nc(Cl)nc2ccccc12 [Compound 1, N^1-[4-(2-chloro)quinazolinyl]-6-methoxy-1,2,3,4-tetrahydroquinoline] | 0.0005 (≈ 0.00153 µM) | 0.0006 (≈ 0.00184 µM) | –
3 | COc1ccc2c(c1)OCCN2c1nc(Cl)nc2ccccc12 [Compound 13, N^4-[4-(2-chloro)quinazolinyl]-7-methoxy-3,4-dihydro-2H-benzo[b][1,4]oxazine] | 0.055 (≈ 0.168 µM) | 0.065 (≈ 0.198 µM) | 173 to 174
4 | CNc1nc(N2CCCc3cc(OC)ccc32)c2ccccc2n1 [Compound 4, N^1-[4-(2-methylamino)quinazolinyl]-6-methoxy-1,2,3,4-tetrahydro-quinoline] | 0.0075 (≈ 0.0234 µM) | 0.0088 (≈ 0.0275 µM) | –
5 | COc1ccc2c(c1)CCCN2c1cccc2ccccc12 [Compound 37, 4-(6-methoxy-1,2,3,4-tetrahydro-1-quinolyl)naphthalene] | 4.27 (≈ 14.8 µM) | 5.15 (≈ 17.8 µM) | –
6 | COc1ccc2c(c1)C(=O)CCN2c1nc(Cl)nc2ccccc12 [Compound 18, N^1-[4-(2-chloro)quinazolinyl]-6-methoxy-2,3-dihydroquinolin-4(1H)-one] | 0.0106 (≈ 0.0312 µM) | 0.0091 (≈ 0.0268 µM) | 218 to 220
7 | Cc1ccc2c(c1)CCCN2c1nc(C)nc2ccccc12 [Compound 6, N^1-[4-(2-methyl)quinazolinyl]-6-methyl-1,2,3,4-tetrahydroquinoline] | 0.051 (≈ 0.176 µM) | 0.061 (≈ 0.211 µM) | 136 to 138
8 | COc1ccc2c(c1)CCCN2c1nc(OC)nc2ccccc12 [Compound 3, N^1-[4-(2-methoxy)quinazolinyl]-6-methoxy-1,2,3,4-tetrahydro-quinoline] | 0.0069 (≈ 0.0215 µM) | 0.0077 (≈ 0.024 µM) | 161 to 163
9 | COc1ccc2c(c1)CCCN2c1cc(Cl)nc(N)n1 [Compound 30, N^1-[4-(2-amino-6-chloro)pyrimidinyl]-6-methoxy-1,2,3,4-tetrahydro-quinoline] | 0.06 (≈ 0.206 µM) | 0.077 (≈ 0.265 µM) | 179 to 181
10 | COc1ccc2c(c1)CCCN2c1nc(C)nc2ccccc12 [Compound 2, N^1-[4-(2-methyl)quinazolinyl]-6-methoxy-1,2,3,4-tetrahydroquinoline] | 0.0046 (≈ 0.0151 µM) | 0.0056 (≈ 0.0183 µM) | –
11 | CNC(=O)c1cc(Br)cc(N2CCCc3cc(OC)ccc32)c1 [Compound 28, N^1-[(3-bromo-5-methylaminoacyl)phenyl]-6-methoxy-1,2,3,4-tetrahydroquinoline] | 0.209 (≈ 0.557 µM) | 0.14 (≈ 0.373 µM) | 166 to 167
12 | COc1ccc2c(c1)CCCN2c1cc(Br)cc(C(=O)O)c1 [Compound 27, N^1-[(3-bromo-5-carboxyl)phenyl]-6-methoxy-1,2,3,4-tetrahydro-quinoline] | – | – | 175 to 177
13 | COc1ccc2c(c1)N(C)C(=O)CN2c1nc(C)nc2ccccc12 [Compound 31, N^1-methyl-N^4-[4-(2-methyl)quinazolinyl]-7-methoxy-3,4-dihydro-quinoxalin-2(1H)-one] | 0.0072 (≈ 0.0215 µM) | 0.0063 (≈ 0.0188 µM) | –

The next lines start with the values.

Row | GI50 [1] [µg/mL] | GI50 (A549 lung cancer cells) [µg/mL] | melting point [°C] | SMILES
14 | 0.051 (≈ 0.153 µM) | 0.056 (≈ 0.167 µM) | – | COc1ccc2c(c1)CCCN2c1nc(N(C)C)nc2ccccc12 [Compound 32, 2-(N-methylmethylamino)-4-(6-methoxy-1,2,3,4-tetrahydro-1-quinolyl)quinazoline]
15 | 0.0053 (≈ 0.00621 µM) | 0.0065 (≈ 0.00761 µM) | – | CC(=O)O[C@H]1C(=O)[C@@]2(C)[C@H]([C@H](OC(=O)c3ccccc3)[C@]3(O)C[C@H](OC(=O)[C@H](O)[C@@H](NC(=O)c4ccccc4)c4ccccc4)C(C)=C1C3(C)C)[C@]1(OC(C)=O)CO[C@@H]1C[C@@H]2O [Paclitaxel, paclitaxel, reference compound]
16 | 0.0045 (≈ 0.013 µM) | 0.0057 (≈ 0.0165 µM) | – | COc1ccc2c(c1)CCCN2c1nc(NC2CC2)nc2ccccc12 [Compound 33, 2-cyclopropylamino-4-(6-methoxy-1,2,3,4-tetrahydro-1-quinolyl) quinazoline]
17 | 0.0007 (≈ 0.00219 µM) | 0.001 (≈ 0.00312 µM) | – | COc1ccc2c(c1)NC(=O)CN2c1nc(C)nc2ccccc12 [Compound 19, N^4-[4-(2-methyl)quinazolinyl]-7-methoxy-3,4-dihydroquinoxalin-2(1H)-one]
18 | 0.483 (≈ 1.28 µM) | 0.421 (≈ 1.12 µM) | – | COC(=O)c1cc(Br)cc(N2CCCc3cc(OC)ccc32)c1 [Compound 26, N^1-[(3-bromo-5-methoxycarbonyl)phenyl]-6-methoxy-1,2,3,4-tetrahydroquinoline]
19 | 4.76 (≈ 14.9 µM) | 5.34 (≈ 16.7 µM) | 125 to 127 | COc1ccc2c(c1)CCCN(c1nc(C)nc3ccccc13)C2 [Compound 9, N^2-[4-(2-methyl)quinazolinyl]-7-methoxy-2,3,4,5-tetrahydro-1H-benzo[c]azepine]
20 | 7.77 (≈ 23.9 µM) | 4.71 (≈ 14.5 µM) | 192 to 194 | COc1cc2c(cc1F)N(c1nc(C)nc3ccccc13)CCO2 [Compound 14, N^4-[4-(2-methyl)quinazolinyl]-6-fluoro-7-methoxy-3,4-dihydro-2H-benzo[b][1,4]oxazine]
21 | 0.062 (≈ 0.154 µM) | 0.067 (≈ 0.167 µM) | – | COc1ccc2c(c1)CCCN2c1cc(Br)cc(C(=O)NC2CC2)c1 [Compound 29, N^1-[3-bromo-5-(N-cyclopropylaminoacyl)phenyl]-6-methoxy-1,2,3,4-tetrahydroquinoline]
22 | 0.06 (≈ 0.162 µM) | 0.065 (≈ 0.176 µM) | 70 to 72 | CCOC1CCN(c2nc(Cl)nc3ccccc23)c2ccc(OC)cc21 (stereo not shown) [Compound 12, N^1-[4-(2-chloro)quinazolinyl]-4-ethoxy-6-methoxy-1,2,3,4-tetrahydroquinoline]
23 | 0.056 (≈ 0.165 µM) | 0.065 (≈ 0.191 µM) | 102 to 103 | COc1ccc2c(c1)CCCCN2c1nc(Cl)nc2ccccc12 [Compound 10, N^1-[4-(2-chloro)quinazolinyl]-7-methoxy-2,3,4,5-tetrahydro-1H-benzo[b]-azepine]
24 | 0.0073 (≈ 0.02 µM) | 0.0058 (≈ 0.0159 µM) | – | COc1ccc2c(c1)CCCN2c1nc(NCCCO)nc2ccccc12 [Compound 35, 2-(3-hydroxylpropylamino)-4-(6-methoxy-1,2,3,4-tetrahydro-1-quinolyl)quinazoline]
25 | 0.06 (≈ 0.169 µM) | 0.075 (≈ 0.212 µM) | 129 to 130 | Cc1nc(N2CCCc3cc(Br)ccc32)c2ccccc2n1 [Compound 7, N^1-[4-(2-methyl)quinazolinyl]-6-bromo-1,2,3,4-tetrahydroquinoline]
26 | 0.483 (≈ 1.29 µM) | 0.501 (≈ 1.34 µM) | – | COc1ccc2c(c1)CCCN2c1nc(NC2CCCC2)nc2ccccc12 [Compound 34, 2-cyclopentylamino-4-(6-methoxy-1,2,3,4-tetrahydro-1-quinolyl) quinazoline]
27 | 0.006 (≈ 0.0187 µM) | 0.006 (≈ 0.0187 µM) | – | COc1ccc2c(c1)C(O)CCN2c1nc(C)nc2ccccc12 (stereo not shown) [Compound 11, N^1-[4-(2-methyl)quinazolinyl]-4-hydroxyl-6-methoxy-1,2,3,4-tetrahydroquinoline]
28 | 0.0115 (≈ 0.0378 µM) | 0.0138 (≈ 0.0453 µM) | – | COc1ccc2c(c1)CCCN2c1cc(C)nc2ccccc12 [Compound 20, 6-methoxy-2′-methyl-3,4-dihydro-2H-1,4′-biquinoline]
